# Laboratory results taken from patent publication US20230301947A1, “COMPOUND FOR PREVENTING AND TREATING PSYCHIATRIC DISORDERS AND USE THEREOF” (SHANGHAI INSTITUTE OF MATERIA MEDICA, CHINESE ACADEMY OF …, priority 2020, published 2023).
# Experiments:
# SD rats [1] = assay: Forced swimming test in rats (control and ACTH-induced refractory depression model); format: in vivo; conditions: 20 mg/kg intraperitoneal, tested 30 min after administration; for antidepressant effect in forced swimming: ACTH group SD rats (refractory depression model)
# Procedure: (§1) The forced swimming test system is primarily used in antidepressant studies.
# (§2) Experimental operation: Mice were individually placed in a cylindrical glass tank 30 cm high and 20 cm in diameter, with a water depth of 15 cm (20 cm for rats), so that the mice are unable to escape from the glass tank and their feet and tails can not touch the bottom of the tank. The water temperature was 23° C.-25° C. The mice were filmed for 6 minutes after entering the water. Since most of the mice were very active in the first two minutes, the last 4 minutes of immobility time were calculated (criteria for determining immobility: the mice stopped struggling in the water, immobility and fine limb movements to maintain balance or float). Groups of mice were operated in parallel.
# An animal model of refractory depression was induced in SD rats by continuous intraperitoneal injection of adrenocorticotropic hormone (ACTH) for 3 weeks. This model can block the effects of tricyclic antidepressants and some SSRIs antidepressants, but can not block the efficacy of ketamine and electroconvulsive therapy (ETC). Since ketamine and ETC have specific efficacy in refractory depression, this animal model can be used to preliminary evaluate whether the drug have efficacy in refractory depression.
# 1. SD rats in the model group (ACTG) were continuously injected with ACTH for 3 weeks (once/day), and the test drug was injected intraperitoneally 24 h after the last administration of ACTH. The rats in the control group (CON) were continuously injected intraperitoneally with 0.9% saline (once/day) and similarly the test drug was injected intraperitoneally 24 h after the last administration of saline.
# 3. After the open-field experiment, ACTH was continued to be injected, and after 24 h, the above test drug was injected intraperitoneally and forced swimming was tested 30 min after the administration.
# SD rats [2] = assay: Open field test in rats (control and ACTH-induced refractory depression model); format: in vivo; conditions: normal animals and ACTH model animals (SD rats); 20 mg/kg intraperitoneal, tested 30 min after administration
# Text: Open field test, also known as the open box test, is a method to evaluate the autonomous behavior, exploratory behavior and anxiety-like behavior of experimental animals in a novel environment. The frequency and duration of the normal activities, the fear of the open environment and the exploration of the new environment and other behaviors of the experimental animals in the open box are used to reflect the autonomous behavior and exploratory behavior of the experimental animals in the unfamiliar environment. The results of the open-field experiments were analyzed to evaluate the depression and anxiety-like behaviors of the animals.
# Experimental operation: the experimental animals were placed in the behavior room 2 hours before the experiment. The animals were placed in the center of the bottom of a black plastic box (size 100*100*45 cm) during the experiment, while video filming was performed. The experiment time was 10 minutes and was conducted in a quiet environment. […] The video was analyzed using the animal spontaneous activity analysis software to obtain information of central area activity time (anxiety-like behavior), total distance of activities (exercise ability), and number of wall climbing (novel environment exploratory behavior) and the like, which can be used to judge the depression or anxiety-like behavior of the animal and degree thereof. […]
# mice = assay: 14-day subacute toxicity test in mice; format: in vivo; conditions: male and female mice; 5, 50 and 100 mg/kg intraperitoneal, once a day, 14 days
# Procedure: Test drug configuration: CLA096: Three doses were set up: 5 mg/kg, 50 mg/kg and 100 mg/kg, respectively.
# TREK-1 ion channel = biological target: T1, TREK-1 ion channel (Homo sapiens, UniProt O95069); assay: Whole-cell membrane clamp recording of TREK-1 channel current in transfected CHO-K1 cells; format: cell-based
# T1 construct: expressed in transfected cells; host or cells: CHO-K1
# T1 sequence (O95069 1-426): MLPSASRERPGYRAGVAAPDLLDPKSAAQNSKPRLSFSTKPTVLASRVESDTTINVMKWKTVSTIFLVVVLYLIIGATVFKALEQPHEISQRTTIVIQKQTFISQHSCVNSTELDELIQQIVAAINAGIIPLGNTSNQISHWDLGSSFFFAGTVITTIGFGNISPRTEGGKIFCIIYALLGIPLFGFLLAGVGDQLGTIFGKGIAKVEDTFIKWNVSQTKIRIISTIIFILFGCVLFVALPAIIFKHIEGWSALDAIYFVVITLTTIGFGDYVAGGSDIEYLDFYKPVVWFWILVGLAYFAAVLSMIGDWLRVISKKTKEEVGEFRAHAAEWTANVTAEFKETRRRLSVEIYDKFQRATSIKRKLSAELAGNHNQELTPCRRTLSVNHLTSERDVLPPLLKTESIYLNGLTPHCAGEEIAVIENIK
# Procedure: Cells were transfected using a cationic liposome transfection method, and the target gene TREK-1 plasmid protein was heterologously expressed in CHO-K1 cells according to the operating standard instructions of Lipo3000 transfection reagent. The ion channel protein was expressed in the cells for 24-48 h followed by electrophysiological experiments.
# Whole-cell membrane clamp recording mode was used for electrophysiological experiments. The transfected cells were placed in a bath containing extracellular fluid, the resistance of the drawn electrode is 3-7 MΩ, the electrode was filled with intracellular fluid, the polished electrode was used to contact the cell membrane, the positive voltage was removed and the negative voltage was gently applied to form a high impedance seal, and then the cell membrane was broken by continuing to apply negative voltage, i.e. whole-cell recording mode was formed. The sampling frequency of the electrophysiological amplifier was 10 kHz, and the data sampling was controlled using a DigiData 1440A conversion interface. The software used for collecting and analyzing whole-cell recording experimental data is Clamfit 10.7, the software used for data analysis and graphing is Origin 8.1, and the software used for statistical analysis is SPSS.
# CLA096: Three doses were set up in this example. The drug was firstly dissolved in DMSO and then diluted with tri-distilled water to […]: 5 µM, 10 µM and 20 µM, respectively.
# The experiment was performed using a cell membrane clamp method to record the current of TREK-1 ion channel in whole cells. Protocol A0 was chosen to record the currents of cells at -80 mV, -60 mV, -40 mV, -20 mV, 0 mV, 20 mV, 40 mV, 60 mV and 80 mV, and Protocol A0 was repeated with different concentrations such as 5 µM, 10 µM and 20 µM of CLA096 being perfused, respectively. After administration, whether it can be eluted was tested.
# C57 mice [3] = assay: Forced swimming experiment in normal mice; format: in vivo; conditions: C57 male mice, intraperitoneal; for immobility time in forced swimming test: compared with vehicle group
# Procedure: as §1, §2
# CLA096: Three doses were set up in this example, the low, medium and high doses were 5 mg/kg, 20 mg/kg and 40 mg/kg, respectively. The compound was dissolved in 0.5% Tween-40 and sonicated, and should be used right after it was ready.
# Fluoxetine (FLX): FLX with a dose of 10 mg/kg; dissolved in double distilled water, and should be used right after it was ready.
# C57 mice [4] = assay: Novelty-suppressed feeding experiment in normal mice; format: in vivo; conditions: C57 male mice, intraperitoneal
# Procedure: Novelty-suppressed feeding experiment (NSF) is a conflict between feeding occurred in a novel environment in a state of starvation after fasting and fear of novel environment. Long-term administration of antidepressant drugs can reduce the conflict response ability of animals, which is manifested by shortened incubation period of the start of feeding. This model is currently widely used in the evaluation of antidepressant and anti-anxiety efficacy.
# The experimental equipment was a 35 cm*35 cm*30 cm (L*W*H) open box, which was overspread with substrate, and a white filter paper with a diameter of 5 cm was placed in the open box, and 2 pieces of food were placed in the middle of the filter paper. The animals were fasted for 12 h before the administration of the drug.
# Two hours before the behavioral test, the animal were moved into the functional room for 2 h to acclimatize. […] The animal were placed from the edge of the experimental open box, and the animal were regarded as successful feeding if their mouths touched the food within 10 min, and then the animal were removed immediately and the time of successful feeding (i.e. Novelty latency) was calculated. The animal were then placed in the normal feeding cage and the time from placement to feeding (i.e. Habituation latency) was also calculated. […] The whole experiment was recorded by camera, and the data were processed and analyzed offline. […]
# [5] = CLA096 5, 20, 40 mg/kg vs positive control fluoxetine
compound,measurement,setting,value
CN(C)CCCN1c2ccccc2CCc2ccccc21 [Imipramine],antidepressant effect in forced swimming,SD rats [1],blocked
same,immobility time of forced swimming,SD rats [1]; control (CON) group SD rats,significantly reduced the immobility time
CNC1(c2ccccc2Cl)CCCCC1=O (stereo not drawn) [Ketamine],total movement distance in open field,SD rats [2],no significant difference
same,antidepressant effect in forced swimming,SD rats [1],remained significant
same,immobility time of forced swimming,SD rats [1]; control (CON) group SD rats,significantly reduced the immobility time
"CN(Cc1ccccc1)C(=O)CN(c1ccc(Cl)cc1)S(C)(=O)=O [CLA096, N-benzyl-2-(N-(4-chlorophenyl)methylsulfonylamino)-N-methylacetamide]",body weight change,mice,no significant changes in body weight
same,inhibition rate of TREK-1 channel open current,TREK-1 ion channel; 5 µM CLA096,0.75 ± 0.02
same,inhibition rate of TREK-1 channel open current,TREK-1 ion channel; 10 µM CLA096,0.55 ± 0.05
same,inhibition rate of TREK-1 channel open current,TREK-1 ion channel; 20 µM CLA096,0.59 ± 0.01
same,total movement distance in open field,SD rats [2],no significant difference
same,effect on forced swimming immobility time compared with fluoxetine,C57 mice [3]; [5],significantly better than fluoxetine
same,immobility time in forced swimming test,"C57 mice [3]; CLA096 5, 20 and 40 mg/kg",significantly reduces the immobility time of animals at all doses
same,effect on feeding latency compared with fluoxetine,C57 mice [4]; [5],significantly better than fluoxetine
same,latency of feeding of fasted mice (novelty-suppressed feeding),"C57 mice [4]; CLA096 5, 20 and 40 mg/kg, compared with vehicle group",significantly reduced the latency value
same,antidepressant effect in forced swimming,SD rats [1],remained significant
same,immobility time of forced swimming,SD rats [1]; control (CON) group SD rats,significantly reduced the immobility time
same,swimming time in forced swimming,SD rats [1]; control (CON) group SD rats,significantly increased the swimming time
"CNCCC(Oc1ccc(C(F)(F)F)cc1)c1ccccc1 (stereo not drawn) [Fluoxetine, reference compound]",immobility time in forced swimming test,C57 mice [3]; fluoxetine 10 mg/kg (table says 20),significantly reduces the immobility time
